# Laboratory results: patent publication US8349829B2, “[4-(1-amino-ethyl)-cyclohexyl]-methyl-amine and [6-(1-amino-ethyl)-tetrahydro-pyran-3-yl]-methyl-amine derivatives as antibacterials” (Actelion Pharmaceuticals Ltd., priority 2008, dated 2013)
# Columns and labels:
# [1] = tested on: P. aeruginosa 27853; assay: MIC by microdilution in cation-adjusted Mueller-Hinton Broth (NCCLS); format: cell-based; details: for MIC: Pseudomonas aeruginosa, 27853, pH 7.2-7.3; for MIC for P. aeruginosa 27853: pH 7.2-7.3
# Experimental: (§1) These assays have been performed following the description given in “Methods for dilution Antimicrobial Susceptibility Tests for Bacteria that Grow Aerobically, 4th ed.; Approved standard: NCCLS Document M7-A4; National Committee for Clinical Laboratory Standards: Villanova, Pa., USA, 1997”. Minimal inhibitory concentrations (MICs; mg/l) were determined in cation-adjusted Mueller-Hinton Broth (BBL) by a microdilution method following NCCLS guidelines (National Committee for Clinical Laboratory Standards. Methods for Dilution Antimicrobial Susceptibility). The pH of the test medium was 7.2-7.3. All Example compounds were tested against several Gram positive and Gram negative bacteria such as S. aureus, E. faecalis, S. pneumoniae, M catarrhalis, A. baumanii, E. coli or P. aeruginosa.
# [2] = tested on: E. coli 25922; assay: as above; format: cell-based; details: for MIC: Escherichia coli, 25922, pH 7.2-7.3; for MIC for E. coli 25922: pH 7.2-7.3
# Experimental: as §1
Structure (SMILES),MIC [1],MIC [2],MIC for P. aeruginosa 27853 [1],MIC for E. coli 25922 [2]
"COc1ccc2ccc(=O)n(C[C@H](N)[C@@H]3CC[C@@H](NCc4ccc5c(n4)NC(=O)CS5)CO3)c2n1 [Example 10, 6-({(3R,6S)-6-[(1S)-1-amino-2-(7-methoxy-2-oxo-2H-[1,8]naphthyridin-1-yl)-ethyl]-tetrahydro-pyran-3-ylamino}-methyl)-4H-pyrido[3,2-b][1,4]thiazin-3-one]",0.5 µg/mL,≤ 0.031 µg/mL,,
"COc1cnc2ccc(=O)n(C[C@H](N)[C@@H]3CC[C@@H](NCc4ccc5c(n4)NC(=O)CO5)CO3)c2c1 [Example 7, 6-({(3R,6S)-6-[(1S)-1-amino-2-(7-methoxy-2-oxo-2H-[1,5]naphthyridin-1-yl)-ethyl]-tetrahydro-pyran-3-ylamino}-methyl)-4H-pyrido[3,2-b][1,4]oxazin-3-one]",4 µg/mL,1 µg/mL,,
"COc1ccc2ccc(=O)n(C[C@H](N)[C@@H]3CC[C@@H](NCc4cc5c(cn4)OCCO5)CO3)c2n1 [Example 12, 1-((1S)-2-amino-2-{(2S,5R)-5-[(2,3-dihydro-[1,4]dioxino[2,3-c]pyridin-7-ylmethyl)-amino]-tetrahydro-pyran-2-yl}-ethyl)-7-methoxy-1H-[1,8]naphthyridin-2-one]",,,0.5 mg/L,0.063 mg/L
"COc1ccc2ccc(=O)n(C[C@H](N)[C@@H]3CC[C@@H](NC/C=C/c4cc(F)ccc4F)CO3)c2c1 [Example 4, 1-((2S)-2-amino-2-{(2S,5R)-5-[(E)-3-(2,5-difluoro-phenyl)-allylamino]-tetrahydro-pyran-2-yl}-ethyl)-7-methoxy-1H-quinolin-2-one]",2 µg/mL,0.063 µg/mL,,
"COc1cnc2ccc(=O)n(C[C@H](N)[C@@H]3CC[C@@H](NCc4ccc5c(n4)NC(=O)CS5)CO3)c2c1 [Example 6, 6-({(3R,6S)-6-[(1S)-1-amino-2-(7-methoxy-2-oxo-2H-[1,5]naphthyridin-1-yl)-ethyl]-tetrahydro-pyran-3-ylamino}-methyl)-4H-pyrido[3,2-b][1,4]thiazin-3-one]",2 µg/mL,0.25 µg/mL,,
"COc1ccc2ccc(=O)n(CC(N)[C@H]3CC[C@H](NCc4ccc5c(n4)NC(=O)CO5)CC3)c2c1 (mixture of isomers) [Ref. Ex. 2, rac-6-(trans-{4-[1-amino-2-(7-methoxy-2-oxo-2H-quinolin-1-yl)-ethyl]-cyclohexylamino}-methyl)-4H-pyrido[3,2-b][1,4]oxazin-3-one]",0.5 µg/mL,0.5 µg/mL,,
"COc1ccc2ccc(=O)n(CC(N)C3CCC(NC/C=C/c4cc(F)ccc4F)CC3)c2c1 [Example 13, 1-((1R)-2-amino-2-{4-[(E)-3-(2,5-difluoro-phenyl)-allylamino]-cyclohexyl}-ethyl)-7-methoxy-1H-quinolin-2-one]",,,1 mg/L,0.25 mg/L
"COc1cnc2ccc(=O)n(C[C@H](N)[C@@H]3CC[C@@H](NCc4ccc5c(c4)NC(=O)CO5)CO3)c2c1 [Example 8, 6-({(3R,6S)-6-[(1S)-1-amino-2-(7-methoxy-2-oxo-2H-[1,5]naphthyridin-1-yl)-ethyl]-tetrahydro-pyran-3-ylamino}-methyl)-4H-benzo[1,4]oxazin-3-one]",4 µg/mL,1 µg/mL,,

# Other lines, results leading:
MIC [1],MIC [2],MIC for P. aeruginosa 27853 [1],MIC for E. coli 25922 [2],Structure (SMILES)
0.5 µg/mL,0.25 µg/mL,,,"COc1ccc2ccc(=O)n(CC(N)[C@H]3CC[C@H](NCc4ccc5c(n4)NC(=O)CS5)CC3)c2c1 (mixture of isomers) [Ref. Ex. 1, rac-6-(trans-{4-[1-amino-2-(7-methoxy-2-oxo-2H-quinolin-1-yl)-ethyl]-cyclohexylamino}-methyl)-4H-pyrido[3,2-b][1,4]thiazin-3-one]"
8 µg/mL,0.5 µg/mL,,,"COc1ccc2ccc(=O)n(C[C@H](N)[C@@H]3CC[C@@H](NCc4ccc5c(n4)NC(=O)CO5)CO3)c2n1 [Example 11, 6-({(3R,6S)-6-[(1S)-1-amino-2-(7-methoxy-2-oxo-2H-[1,8]naphthyridin-1-yl)-ethyl]-tetrahydro-pyran-3-ylamino}-methyl)-4H-pyrido[3,2-b][1,4]oxazin-3-one]"
0.25 µg/mL,0.25 µg/mL,,,"COc1ccc2ccc(=O)n(C[C@H](N)[C@H]3CC[C@H](NCc4ccc5c(n4)NC(=O)CO5)CC3)c2c1 [Example 2, 6-(trans-{4-[(1R)-1-amino-2-(7-methoxy-2-oxo-2H-quinolin-1-yl)-ethyl]-cyclohexylamino}-methyl)-4H-pyrido[3,2-b][1,4]oxazin-3-one]"
16 µg/mL,0.25 µg/mL,,,"COc1ccc2ncc(=O)n(C[C@H](N)[C@@H]3CC[C@@H](NCc4ccc5c(n4)NC(=O)CS5)CO3)c2c1 [Example 9, 6-({(3R,6S)-6-[(1S)-1-amino-2-(7-methoxy-2-oxo-2H-quinoxalin-1-yl)-ethyl]-tetrahydro-pyran-3-ylamino}-methyl)-4H-pyrido[3,2-b][1,4]thiazin-3-one]"
0.25 µg/mL,0.063 µg/mL,,,"COc1ccc2ccc(=O)n(C[C@H](N)[C@H]3CC[C@H](NCc4ccc5c(n4)NC(=O)CS5)CC3)c2c1 [Example 1, 6-(trans-{4-[(1R)-1-amino-2-(7-methoxy-2-oxo-2H-quinolin-1-yl)-ethyl]-cyclohexylamino}-methyl)-4H-pyrido[3,2-b][1,4]thiazin-3-one]"
4 µg/mL,0.25 µg/mL,,,"COc1ccc2ccc(=O)n(C[C@H](N)[C@@H]3CC[C@@H](NCc4ccc5c(n4)NC(=O)CO5)CO3)c2c1 [Example 3, 6-({(3R,6S)-6-[(1S)-1-amino-2-(7-methoxy-2-oxo-2H-quinolin-1-yl)-ethyl]-tetrahydro-pyran-3-ylamino}-methyl)-4H-pyrido[3,2-b][1,4]oxazin-3-one]"
,,2 mg/L,0.125 mg/L,COc1ccc2ccc(=O)n(C[C@H](N)[C@@H]3CC[C@@H](NCc4ccc5c(n4)NC(=O)CS5)CO3)c2c1 [Example 5]
